{
  "source": "the NIST ThermoML archive (doi:10.1021/je0601356)",
  "details": "Liquid, Vibrating wire viscometry",
  "note": "Where “and” joins values, the source holds several entries; their conditions need not be identical. Equal values may be shown once. ± gives the expanded uncertainty stated by the source.",
  "data": [
    {"smiles": "CC(F)(F)F", "note": "[1,1,1-trifluoroethane]", "values": [
      {"measurement": "viscosity", "setting": "254.35 K, 1340 kPa", "value": "0.2054 ± 0.006", "unit": "mPa·s"},
      {"measurement": "viscosity", "setting": "254.35 K, 1350 kPa", "value": "0.2063 ± 0.006 mPa·s and 0.2059 ± 0.006 mPa·s and 0.2062 ± 0.006 mPa·s"},
      {"measurement": "viscosity", "setting": "254.35 K, 1360 kPa", "value": "0.2057 ± 0.006 mPa·s and 0.2065 ± 0.006 mPa·s"},
      {"measurement": "viscosity", "setting": "254.35 K, 1410 kPa", "value": "0.206 ± 0.006", "unit": "mPa·s"},
      {"measurement": "viscosity", "setting": "254.35 K, 1450 kPa", "value": "0.2063 ± 0.006", "unit": "mPa·s"},
      {"measurement": "viscosity", "setting": "254.35 K, 1960 kPa", "value": "0.208 ± 0.006 mPa·s and 0.2082 ± 0.006 mPa·s"},
      {"measurement": "viscosity", "setting": "254.35 K, 1970 kPa", "value": "0.2078 ± 0.006", "unit": "mPa·s"},
      {"measurement": "viscosity", "setting": "254.35 K, 2010 kPa", "value": "0.2081 ± 0.006 mPa·s and 0.208 ± 0.006 mPa·s"},
      {"measurement": "viscosity", "setting": "254.35 K, 2040 kPa", "value": "0.2083 ± 0.006", "unit": "mPa·s"},
      {"measurement": "viscosity", "setting": "254.35 K, 2070 kPa", "value": "0.2088 ± 0.006", "unit": "mPa·s"},
      {"measurement": "viscosity", "setting": "254.35 K, 3110 kPa", "value": "0.2114 ± 0.0061", "unit": "mPa·s"},
      {"measurement": "viscosity", "setting": "254.35 K, 3160 kPa", "value": "0.2116 ± 0.0061", "unit": "mPa·s"},
      {"measurement": "viscosity", "setting": "254.35 K, 3170 kPa", "value": "0.2115 ± 0.0061", "unit": "mPa·s"},
      {"measurement": "viscosity", "setting": "254.35 K, 3210 kPa", "value": "0.2122 ± 0.0061", "unit": "mPa·s"},
      {"measurement": "viscosity", "setting": "254.35 K, 3280 kPa", "value": "0.212 ± 0.0061", "unit": "mPa·s"},
      {"measurement": "viscosity", "setting": "254.35 K, 3320 kPa", "value": "0.2119 ± 0.0061", "unit": "mPa·s"},
      {"measurement": "viscosity", "setting": "254.35 K, 4170 kPa", "value": "0.2145 ± 0.0061", "unit": "mPa·s"},
      {"measurement": "viscosity", "setting": "254.35 K, 4190 kPa", "value": "0.2147 ± 0.0061", "unit": "mPa·s"},
      {"measurement": "viscosity", "setting": "254.35 K, 4210 kPa", "value": "0.2147 ± 0.0061", "unit": "mPa·s"},
      {"measurement": "viscosity", "setting": "254.35 K, 4940 kPa", "value": "0.2173 ± 0.0061", "unit": "mPa·s"},
      {"measurement": "viscosity", "setting": "254.35 K, 4970 kPa", "value": "0.2167 ± 0.0062", "unit": "mPa·s"},
      {"measurement": "viscosity", "setting": "254.35 K, 5000 kPa", "value": "0.2176 ± 0.0062", "unit": "mPa·s"},
      {"measurement": "viscosity", "setting": "254.35 K, 5020 kPa", "value": "0.2172 ± 0.0061", "unit": "mPa·s"},
      {"measurement": "viscosity", "setting": "254.35 K, 5050 kPa", "value": "0.2171 ± 0.0061", "unit": "mPa·s"},
      {"measurement": "viscosity", "setting": "254.35 K, 5100 kPa", "value": "0.2176 ± 0.0062", "unit": "mPa·s"},
      {"measurement": "viscosity", "setting": "263.02 K, 1300 kPa", "value": "0.1828 ± 0.0056", "unit": "mPa·s"},
      {"measurement": "viscosity", "setting": "263.02 K, 1320 kPa", "value": "0.1828 ± 0.0056 mPa·s and 0.1829 ± 0.0056 mPa·s"},
      {"measurement": "viscosity", "setting": "263.02 K, 1330 kPa", "value": "0.1827 ± 0.0056 mPa·s and 0.1826 ± 0.0056 mPa·s"},
      {"measurement": "viscosity", "setting": "263.02 K, 1970 kPa", "value": "0.1855 ± 0.0056", "unit": "mPa·s"},
      {"measurement": "viscosity", "setting": "263.02 K, 1980 kPa", "value": "0.1857 ± 0.0056", "unit": "mPa·s"},
      {"measurement": "viscosity", "setting": "263.02 K, 1990 kPa", "value": "0.1855 ± 0.0056", "unit": "mPa·s"},
      {"measurement": "viscosity", "setting": "263.02 K, 2010 kPa", "value": "0.1851 ± 0.0056", "unit": "mPa·s"},
      {"measurement": "viscosity", "setting": "263.02 K, 2020 kPa", "value": "0.1857 ± 0.0056 mPa·s and 0.1859 ± 0.0056 mPa·s"},
      {"measurement": "viscosity", "setting": "263.02 K, 3420 kPa", "value": "0.1899 ± 0.0058", "unit": "mPa·s"},
      {"measurement": "viscosity", "setting": "263.02 K, 3430 kPa", "value": "0.1898 ± 0.0058", "unit": "mPa·s"},
      {"measurement": "viscosity", "setting": "263.02 K, 3450 kPa", "value": "0.1898 ± 0.0058", "unit": "mPa·s"},
      {"measurement": "viscosity", "setting": "263.02 K, 3520 kPa", "value": "0.1903 ± 0.0057", "unit": "mPa·s"},
      {"measurement": "viscosity", "setting": "263.02 K, 3560 kPa", "value": "0.1901 ± 0.0057", "unit": "mPa·s"},
      {"measurement": "viscosity", "setting": "263.02 K, 3590 kPa", "value": "0.1898 ± 0.0058", "unit": "mPa·s"},
      {"measurement": "viscosity", "setting": "263.02 K, 3640 kPa", "value": "0.1906 ± 0.0057", "unit": "mPa·s"},
      {"measurement": "viscosity", "setting": "263.02 K, 3670 kPa", "value": "0.1905 ± 0.0057 mPa·s and 0.1908 ± 0.0057 mPa·s"},
      {"measurement": "viscosity", "setting": "263.02 K, 4800 kPa", "value": "0.1943 ± 0.0059", "unit": "mPa·s"},
      {"measurement": "viscosity", "setting": "263.02 K, 4840 kPa", "value": "0.194 ± 0.0058", "unit": "mPa·s"},
      {"measurement": "viscosity", "setting": "263.02 K, 4870 kPa", "value": "0.194 ± 0.0058", "unit": "mPa·s"},
      {"measurement": "viscosity", "setting": "263.02 K, 4910 kPa", "value": "0.1942 ± 0.0059", "unit": "mPa·s"},
      {"measurement": "viscosity", "setting": "263.02 K, 4950 kPa", "value": "0.1939 ± 0.0059", "unit": "mPa·s"},
      {"measurement": "viscosity", "setting": "263.02 K, 6990 kPa", "value": "0.2018 ± 0.0059", "unit": "mPa·s"},
      {"measurement": "viscosity", "setting": "263.02 K, 7090 kPa", "value": "0.201 ± 0.0059", "unit": "mPa·s"},
      {"measurement": "viscosity", "setting": "263.02 K, 7160 kPa", "value": "0.2015 ± 0.0059", "unit": "mPa·s"},
      {"measurement": "viscosity", "setting": "263.02 K, 7200 kPa", "value": "0.2011 ± 0.0059", "unit": "mPa·s"},
      {"measurement": "viscosity", "setting": "263.02 K, 7230 kPa", "value": "0.2016 ± 0.0059", "unit": "mPa·s"},
      {"measurement": "viscosity", "setting": "263.02 K, 7310 kPa", "value": "0.2013 ± 0.0059 mPa·s and 0.2019 ± 0.0059 mPa·s"},
      {"measurement": "viscosity", "setting": "263.02 K, 7380 kPa", "value": "0.2024 ± 0.0059", "unit": "mPa·s"},
      {"measurement": "viscosity", "setting": "263.02 K, 7390 kPa", "value": "0.2015 ± 0.0059", "unit": "mPa·s"},
      {"measurement": "viscosity", "setting": "263.02 K, 7420 kPa", "value": "0.2011 ± 0.0059", "unit": "mPa·s"},
      {"measurement": "viscosity", "setting": "263.02 K, 7460 kPa", "value": "0.2024 ± 0.0059 mPa·s and 0.2022 ± 0.0059 mPa·s"},
      {"measurement": "viscosity", "setting": "263.02 K, 7520 kPa", "value": "0.2017 ± 0.0059", "unit": "mPa·s"},
      {"measurement": "viscosity", "setting": "273.21 K, 1420 kPa", "value": "0.1617 ± 0.0052", "unit": "mPa·s"},
      {"measurement": "viscosity", "setting": "273.21 K, 1430 kPa", "value": "0.1619 ± 0.0053", "unit": "mPa·s"},
      {"measurement": "viscosity", "setting": "273.21 K, 1440 kPa", "value": "0.1619 ± 0.0053", "unit": "mPa·s"},
      {"measurement": "viscosity", "setting": "273.21 K, 1450 kPa", "value": "0.1619 ± 0.0053", "unit": "mPa·s"},
      {"measurement": "viscosity", "setting": "273.21 K, 1810 kPa", "value": "0.1629 ± 0.0053", "unit": "mPa·s"},
      {"measurement": "viscosity", "setting": "273.21 K, 1820 kPa", "value": "0.1627 ± 0.0053", "unit": "mPa·s"},
      {"measurement": "viscosity", "setting": "273.21 K, 1860 kPa", "value": "0.1629 ± 0.0053", "unit": "mPa·s"},
      {"measurement": "viscosity", "setting": "273.21 K, 1890 kPa", "value": "0.1626 ± 0.0053", "unit": "mPa·s"},
      {"measurement": "viscosity", "setting": "273.21 K, 3450 kPa", "value": "0.1681 ± 0.0054 mPa·s and 0.1679 ± 0.0053 mPa·s and 0.1682 ± 0.0054 mPa·s"},
      {"measurement": "viscosity", "setting": "273.21 K, 3460 kPa", "value": "0.1677 ± 0.0053", "unit": "mPa·s"},
      {"measurement": "viscosity", "setting": "273.21 K, 3490 kPa", "value": "0.1682 ± 0.0054 mPa·s and 0.1678 ± 0.0053 mPa·s"},
      {"measurement": "viscosity", "setting": "273.21 K, 3500 kPa", "value": "0.168 ± 0.0054", "unit": "mPa·s"},
      {"measurement": "viscosity", "setting": "273.21 K, 4850 kPa", "value": "0.1724 ± 0.0055", "unit": "mPa·s"},
      {"measurement": "viscosity", "setting": "273.21 K, 4860 kPa", "value": "0.1722 ± 0.0054", "unit": "mPa·s"},
      {"measurement": "viscosity", "setting": "273.21 K, 4880 kPa", "value": "0.1724 ± 0.0054 mPa·s and 0.1719 ± 0.0055 mPa·s"},
      {"measurement": "viscosity", "setting": "273.21 K, 4910 kPa", "value": "0.1722 ± 0.0054", "unit": "mPa·s"}
    ]}
  ]
}
